These compounds were tested against T1, HCV NS5B polymerase (Hepatitis C virus genotype 1b, UniProt P26663) (assay: Assay for inhibition of HCV NS5B polymerase (RdRp, 3H-UTP incorporation on heteromeric RNA template)). Conditions: heterogeneous template dCoh, 2 nM DC55-lb.BK or 10 nM DC55-2b.2, NTPs 1 uM, room temperature 2 hours.
T1 construct: RNA-dependent RNA polymerase (NS5B) of the hepatitis C virus (HCV)
Format: biochemical
Protocol: The effectiveness of the compounds of the present invention as inhibitors of HCV NS5B RNA-dependent RNA polymerase (RdRp) was measured in the following assay.
This assay was used to measure the ability of the nucleoside derivatives of the present invention to inhibit the enzymatic activity of the RNA-dependent RNA polymerase (NS5B) of the hepatitis C virus (HCV) on a heteromeric RNA template.
Assay Buffer Conditions: (52.5 μL-total/reaction)
20 nM heterogeneous template dCoh
2.5 μl/reaction inhibitor compound in H2O
The compounds were tested at various concentrations up to 100 μM final concentration. Nucleoside derivatives were pipetted into wells of a 96-well plate. The enzyme diluted in the reaction buffer was pipetted into the wells and incubated at room temperature for 10 minutes; then the template dCoh was added and incubated for 10 minutes at room temperature. The reaction was initiated by addition of a mixture of nucleotide triphosphates (NTP's), including the radiolabeled UTP, and allowed to proceed at room temperature for 2 hours. Blank samples were done omitting the dCoh template. The reaction was quenched by addition of 50 ul TCA 20% (trichloroacetic acid)/NaPPi 20 mM and the plates were put in ice for 5 minutes. Then, the mixtures were filtered onto Unifilter GF/B 96-well plates (PerkinElmer), washed with TCA 2.5%. 50 ul/well of scintillator solution (Microscint 20, PerkinElmer) were added and the plates were counted in a scintillator counter.
The percentage of inhibition was calculated according to the following equation:
% Inhibition=[1−(cpm in test reaction−cpm in blank)/(cpm in control reaction−cpm in blank)]×100.

T1 sequence (P26663 2420-2955): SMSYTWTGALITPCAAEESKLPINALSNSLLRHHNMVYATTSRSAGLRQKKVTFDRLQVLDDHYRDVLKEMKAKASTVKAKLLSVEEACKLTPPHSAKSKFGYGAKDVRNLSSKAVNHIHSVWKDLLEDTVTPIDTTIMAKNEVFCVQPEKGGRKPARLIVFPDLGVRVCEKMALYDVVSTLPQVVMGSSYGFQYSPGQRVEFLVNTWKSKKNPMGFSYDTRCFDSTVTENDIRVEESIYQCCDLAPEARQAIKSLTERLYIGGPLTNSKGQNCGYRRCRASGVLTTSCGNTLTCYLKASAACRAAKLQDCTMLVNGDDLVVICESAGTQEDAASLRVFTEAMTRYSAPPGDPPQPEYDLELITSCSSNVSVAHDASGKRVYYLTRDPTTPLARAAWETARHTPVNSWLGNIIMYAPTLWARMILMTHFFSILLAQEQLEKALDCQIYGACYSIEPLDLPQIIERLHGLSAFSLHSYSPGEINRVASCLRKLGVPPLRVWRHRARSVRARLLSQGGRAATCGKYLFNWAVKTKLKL

| Compound | IC50 |
| --- | --- |
| Cn1cc(-c2cn([C@@H]3O[C@H](COP(=O)(O)OP(=O)(O)OP(=O)(O)O)[C@@H](O)[C@@]3(C)O)c3ncnc(N)c23)nn1 [Compound 17, 7-(2-C-methyl-5-triphospho-β-D-ribofuranosyl)-5-(1-methyl-1H-1,2,3-triazol-4-yl)-7H-pyrrolo[2,3-d]pyrimidin-4-amine] | < 50 µM |
| 7-(2-C-methyl-5-triphospho-β-D-ribofuranosyl)-5-(1-methyl-1H-tetrazol-5-yl)-7H-pyrrolo[2,3-d]pyrimidin-4-amine and 7-(2-C-methyl-5-triphospho-β-D-ribofuranosyl)-5-(2-methyl-2H-tetrazol-5-yl)-7H-pyrrolo[2,3-d]pyrimidin-4-amine [Compound 10] | < 50 µM |
| C[C@@]1(O)[C@H](O)[C@@H](COP(=O)(O)OP(=O)(O)OP(=O)(O)O)O[C@H]1n1cc(-c2ncccn2)c2c(N)ncnc21 [Compound 12, 7-(2-C-methyl-5-triphospho-β-D-ribofuranosyl)-5-pyrimidin-2-yl-7H-pyrrolo[2,3-d]pyrimidin-4-amine] | < 50 µM |

More lines, now with the values ahead:

| IC50 | Compound |
| --- | --- |
| < 50 µM | C[C@@]1(O)[C@H](O)[C@@H](COP(=O)(O)OP(=O)(O)OP(=O)(O)O)O[C@H]1n1cc(-c2cn[nH]c2)c2c(N)ncnc21 [Compound 15, 7-(2-C-methyl-5-triphospho-β-D-ribofuranosyl)-5-(1H-pyrazol-4-yl)-7H-pyrrolo[2,3-d]pyrimidin-4-amine] |
| < 1 µM | C[C@@]1(F)[C@H](O)[C@@H](COP(=O)(O)OP(=O)(O)OP(=O)(O)O)O[C@H]1n1cc(-c2ccn[nH]2)c2c(N)ncnc21 [Compound 20, 7-(2-deoxy-2-fluoro-2-methyl-5-triphospho-β-D-ribofuranosyl)-5-(1H-pyrazol-5-yl)-7H-pyrrolo[2,3-d]pyrimidin-4-amine] |
| < 1 µM | C[C@@]1(F)[C@H](O)[C@@H](COP(=O)(O)OP(=O)(O)OP(=O)(O)O)O[C@H]1n1cc(-c2ncon2)c2c(N)ncnc21 [Compound 18, 7-(2-deoxy-2-fluoro-2-methyl-5-triphospho-β-D-ribofuranosyl)-5-(1,2,4-oxadiazol-3-yl)-7H-pyrrolo[2,3-d]pyrimidin-4-amine] |
| < 50 µM | C[C@@]1(O)[C@H](O)[C@@H](COP(=O)(O)OP(=O)(O)OP(=O)(O)O)O[C@H]1n1cc(-c2nnco2)c2c(N)ncnc21 [Compound 28, 7-(2-C-methyl-5-triphospho-β-D-ribofuranosyl)-5-(1,3,4-oxadiazol-2-yl)-7H-pyrrolo[2,3-d]pyrimidin-4-amine] |
| < 1 µM | C[C@@]1(O)[C@H](O)[C@@H](COP(=O)(O)OP(=O)(O)OP(=O)(O)O)O[C@H]1n1cc(-c2cc[nH]n2)c2c(N)ncnc21 [Compound 14, 7-(2-C-methyl-5-triphospho-β-D-ribofuranosyl)-5-(1H-pyrazol-5-yl)-7H-pyrrolo[2,3-d]pyrimidin-4-amine] |

Reference: patent US20110306573A1, “NUCLEOSIDE DERIVATIVES AS INHIBITORS OF VIRAL POLYMERASES” (priority 2008, published 2011)
